Patent US20180214428A1, “3-(1H-INDOL-2-YL)-1H-PYRAZOLO[3,4-B]PYRIDINES AND THERAPEUTIC USES THEREOF” (Samumed, LLC, priority 2015, published 2018)

Test system: Wnt activity (Sp5-Luc reporter gene, SW480 colon carcinoma cells)
Assay: Screening assay for Wnt activity: Sp5-Luc reporter gene assay in SW480 cells
Type: cell-based, human
Conditions: Homo sapiens; for EC50: overnight incubation; for inhibition at 10 µM: given for EC50 of >10 μM, read-out: percent inhibition at 10 μM
From the text: The screening assay for Wnt activity is described as follows. Reporter cell lines can be generated by stably transducing cancer cell lines (e.g., colon cancer) or primary cells (e.g., IEC-6 intestinal cells) with a lentiviral construct that includes a Wnt-responsive promoter driving expression of the firefly luciferase gene.
SW480 colon carcinoma cells were transduced with a lentiviral vector expressing luciferase with a human Sp5 promoter consisting of a sequence of eight TCF/LEF binding sites. SW480 cells stably expressing the Sp5-Luc reporter gene and a hygromycin resistance gene were selected by treatment with 150 μg/mL of hygromycin for 7 days. These stably transduced SW480 cells were expanded in cell culture and used for all further screening activities. Each compound was dissolved in DMSO as a 10 mM stock and used to prepare compound source plates. Serial dilution (1:3, 10-point dose-response curves starting from 10 μM) and compound transfer was performed using the ECHO 550 (Labcyte, Sunnyvale, Calif.) into 384-well white solid bottom assay plates (Greiner Bio-One) with appropriate DMSO backfill for a final DMSO concentration of 0.1%. For Sp5-Luc reporter gene assays, the cells were plated at 4,000 cells/well in 384-well plates with medium containing 1% fetal bovine serum and incubated overnight at 37° C. and 5% CO2. Following incubation, 20 μl of BrightGlo luminescence reagent (Promega) was added to each well of the 384-well assay plates. The plates were placed on an orbital shaker for 2 min and then luminescence was quantified using the Envision (Perkin Elmer) plate reader. Readings were normalized to DMSO only treated cells, and normalized activities were utilized for EC50 calculations using the dose-response log (inhibitor) vs. response variable slope (four parameters) nonlinear regression feature available in GraphPad Prism 5.0 (or Dotmatics). For EC50 of >10 μM, the percent inhibition at 10 μM is provided.

Compound | EC50 | inhibition at 10 µM
O=C(Nc1cncc(-c2cnc3[nH]nc(-c4cc5c(-c6ccccc6F)cccc5[nH]4)c3c2)c1)C1CCCC1 [Compound 66, N-(5-(3-(4-(2-Fluorophenyl)-1H-indol-2-yl)-1H-pyrazolo[3,4-b]pyridin-5-yl)pyridin-3-yl)cyclopentanecarboxamide] | 1.15 µM | 
c1ccc(CNCc2cncc(-c3cnc4[nH]nc(-c5cc6c(-c7ccncc7)cccc6[nH]5)c4c3)c2)cc1 [Compound 116, N-Benzyl-1-(5-(3-(4-(pyridin-4-yl)-1H-indol-2-yl)-1H-pyrazolo[3,4-b]pyridin-5-yl)pyridin-3-yl)methanamine] | 3.82 µM | 
Fc1ccccc1-c1cccc2[nH]c(-c3n[nH]c4ncc(C5CCNCC5)cc34)cc12 [Compound 539, 3-(4-(2-Fluorophenyl)-1H-indol-2-yl)-5-(piperidin-4-yl)-1H-pyrazolo[3,4-b]pyridine] | > 10 µM | 47.2%
O=C(Nc1cncc(-c2cnc3[nH]nc(-c4cc5c(-c6ccncc6)cccc5[nH]4)c3c2)c1)C1CCCCC1 [Compound 115, N-(5-(3-(4-(Pyridin-4-yl)-1H-indol-2-yl)-1H-pyrazolo[3,4-b]pyridin-5-yl)pyridin-3-yl)cyclohexanecarboxamide] | 5.42 µM | 
c1ccc(-c2cnc3[nH]nc(-c4cc5c(-c6ccncc6)cccc5[nH]4)c3c2)nc1 [Compound 120, 5-(Pyridin-2-yl)-3-(4-(pyridin-4-yl)-1H-indol-2-yl)-1H-pyrazolo[3,4-b]pyridine] | > 10 µM | 16.1%
CC(C)(C)C(=O)Nc1cncc(-c2cnc3[nH]nc(-c4cc5c(-c6ccoc6)cccc5[nH]4)c3c2)c1 [Compound 290, N-(5-(3-(4-(Furan-3-yl)-1H-indol-2-yl)-1H-pyrazolo[3,4-b]pyridin-5-yl)pyridin-3-yl)pivalamide] | > 10 µM | 53%
c1ccc(CNCc2cncc(-c3cnc4[nH]nc(-c5cc6ncccc6[nH]5)c4c3)c2)cc1 [Compound 502, 1-(5-(3-(1H-Pyrrolo[3,2-b]pyridin-2-yl)-1H-pyrazolo[3,4-b]pyridin-5-yl)pyridin-3-yl)-N-benzylmethanamine] | 3.96 µM | 
Cc1ccncc1-c1cnc2[nH]nc(-c3cc4c(-c5cc(F)cc(CNS(C)(=O)=O)c5)cccc4[nH]3)c2c1 [Compound 455, N-(3-Fluoro-5-(2-(5-(4-methylpyridin-3-yl)-1H-pyrazolo[3,4-b]pyridin-3-yl)-1H-indol-4-yl)benzyl)methanesulfonamide] | 0.3 µM | 
CN1CCN(c2cccc3[nH]c(-c4n[nH]c5ncc(-c6cncnc6)cc45)cc23)CC1 [Compound 227, 3-(4-(4-Methylpiperazin-1-yl)-1H-indol-2-yl)-5-(pyrimidin-5-yl)-1H-pyrazolo[3,4-b]pyridine] | 4.31 µM | 
c1cncc(-c2cnc3[nH]nc(-c4cc5ccccc5[nH]4)c3c2)c1 [Compound 231, 3-(1H-Indol-2-yl)-5-(pyridin-3-yl)-1H-pyrazolo[3,4-b]pyridine] | 0.66 µM | 
CC(C)CC(=O)Nc1cncc(-c2cnc3[nH]nc(-c4cc5c(N6CCN(C)CC6)cccc5[nH]4)c3c2)c1 [Compound 202, 3-Methyl-N-(5-(3-(4-(4-methylpiperazin-1-yl)-1H-indol-2-yl)-1H-pyrazolo[3,4-b]pyridin-5-yl)pyridin-3-yl)butanamide] | 4.47 µM | 
FC1(F)CCN(Cc2cncc(-c3cnc4[nH]nc(-c5cc6ncccc6[nH]5)c4c3)c2)C1 [Compound 504, 5-(5-((3,3-Difluoropyrrolidin-1-yl)methyl)pyridin-3-yl)-3-(1H-pyrrolo[3,2-b]pyridin-2-yl)-1H-pyrazolo[3,4-b]pyridine] | > 10 µM | 42.4%
O=C(Nc1cncc(-c2cnc3[nH]nc(-c4cc5c(N6CCCCC6)cccc5[nH]4)c3c2)c1)c1ccccc1 [Compound 155, N-(5-(3-(4-(Piperidin-1-yl)-1H-indol-2-yl)-1H-pyrazolo[3,4-b]pyridin-5-yl)pyridin-3-yl)benzamide] | 3.47 µM | 
c1cc(-c2ccncc2)c2cc(-c3n[nH]c4ncc(-c5ccncc5)cc34)[nH]c2c1 [Compound 111, 5-(Pyridin-4-yl)-3-(4-(pyridin-4-yl)-1H-indol-2-yl)-1H-pyrazolo[3,4-b]pyridine] | > 10 µM | 17.6%
CC(C)(C)CC(=O)Nc1cncc(-c2cnc3[nH]nc(-c4cc5c(-c6ccccc6F)cccc5[nH]4)c3c2)c1 [Compound 61, N-(5-(3-(4-(2-Fluorophenyl)-1H-indol-2-yl)-1H-pyrazolo[3,4-b]pyridin-5-yl)pyridin-3-yl)-3,3-dimethylbutanamide] | 2.17 µM | 
CS(=O)(=O)NCc1cc(F)cc(-c2cccc3[nH]c(-c4n[nH]c5ncc(-c6ccccn6)cc45)cc23)c1 [Compound 478, N-(3-Fluoro-5-(2-(5-(pyridin-2-yl)-1H-pyrazolo[3,4-b]pyridin-3-yl)-1H-indol-4-yl)benzyl)methanesulfonamide] | 3.88 µM | 
O=C(Nc1cncc(-c2cnc3[nH]nc(-c4cc5c(-c6cccc(F)c6)cccc5[nH]4)c3c2)c1)C1CCCCC1 [Compound 19, N-(5-(3-(4-(3-Fluorophenyl)-1H-indol-2-yl)-1H-pyrazolo[3,4-b]pyridin-5-yl)pyridin-3-yl)cyclohexanecarboxamide] | 1.48 µM | 
CCCC(=O)Nc1cncc(-c2cnc3[nH]nc(-c4cc5c(-c6cccc(F)c6)cccc5[nH]4)c3c2)c1 [Compound 14, N-(5-(3-(4-(3-Fluorophenyl)-1H-indol-2-yl)-1H-pyrazolo[3,4-b]pyridin-5-yl)pyridin-3-yl)butyramide] | 0.211 µM | 
c1ccc(CNCc2cncc(-c3cnc4[nH]nc(-c5cc6ccccc6[nH]5)c4c3)c2)cc1 [Compound 250, 1-(5-(3-(1H-Indol-2-yl)-1H-pyrazolo[3,4-b]pyridin-5-yl)pyridin-3-yl)-N-benzylmethanamine] | > 10 µM | 50.9%
CC(C)(C)C(=O)Nc1cncc(-c2cnc3[nH]nc(-c4cc5c(-c6ccc(F)cc6)cccc5[nH]4)c3c2)c1 [Compound 30, N-(5-(3-(4-(4-Fluorophenyl)-1H-indol-2-yl)-1H-pyrazolo[3,4-b]pyridin-5-yl)pyridin-3-yl)pivalamide] | 2.05 µM | 
Cc1ccncc1-c1cnc2[nH]nc(-c3cc4c(-c5ccncc5)cccc4[nH]3)c2c1 [Compound 99, 5-(4-Methylpyridin-3-yl)-3-(4-(pyridin-4-yl)-1H-indol-2-yl)-1H-pyrazolo[3,4-b]pyridine] | > 10 µM | 69.3%
Fc1cccc(-c2cccc3[nH]c(-c4n[nH]c5ncc(-c6cncc(OCc7ccccc7)c6)cc45)cc23)c1 [Compound 520, 5-(5-(Benzyloxy)pyridin-3-yl)-3-(4-(3-fluorophenyl)-1H-indol-2-yl)-1H-pyrazolo[3,4-b]pyridine] | > 10 µM | 18.2%
c1ccc(COc2cncc(-c3cnc4[nH]nc(-c5cc6ncccc6[nH]5)c4c3)c2)cc1 [Compound 1006, 5-(5-(Benzyloxy)pyridin-3-yl)-3-(1H-pyrrolo[3,2-b]pyridin-2-yl)-1H-pyrazolo[3,4-b]pyridine] | 0.714 µM | 
Fc1cccc(-c2cccc3[nH]c(-c4n[nH]c5ncc(-c6cccnc6)cc45)cc23)c1 [Compound 2, 3-(4-(3-Fluorophenyl)-1H-indol-2-yl)-5-(pyridin-3-yl)-1H-pyrazolo[3,4-b]pyridine] | 0.295 µM | 
